We go through two molecules from PubChem BioAssay (NCI).

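Five concentrations, 48 hours, 96-well plates. TGI is the concentration that stops growth completely.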 Where only a bound is given, the exact number is not on record here.

Test systems include HCC-2998 colon; HOP-62 NSCLC; SK-MEL-5 melanoma; SN12C renal; MDA-N; LOX IMVI melanoma; HOP-92 NSCLC; SNB-75 CNS; RXF 393 renal; MDA-MB-231 breast; SF-295 CNS.
What all share (assay): inhibition of tumour cell growth, NCI panel, 48 h

In the case of `C[C@]12CCC(=O)C=C1CC[C@@H]1[C@@H]2CC[C@]2(C)C(=O)/C(=C\c3ccccc3)C[C@@H]12`, the TGI was 35.9 µM in the assay on HCC-2998 colon; greater than 100 µM in the assay on HOP-62 NSCLC; greater than 48.6 µM in the assay on SK-MEL-5 melanoma; 31.9 µM in the assay with SN12C renal; 48 µM in the assay with MDA-N; greater than 51.5 µM in the assay with LOX IMVI melanoma. Besides, the TGI with HOP-92 NSCLC was greater than 86.8 µM; in the assay on SNB-75 CNS it was greater than 100 µM; with RXF 393 renal it was greater than 73.7 µM; in the assay on MDA-MB-231 breast, greater than 100 µM; in the assay with SF-295 CNS, greater than 80.3 µM.
On to `O=C1/C(=C/c2ccc(O)cc2)CCc2ccccc21`, for which the TGI in the assay with HCC-2998 colon came out at 43.6 µM; in the assay with HOP-62 NSCLC, 55.4 µM; in the assay with SK-MEL-5 melanoma it was 32.5 µM; with SN12C renal, 38.1 µM; in the assay on MDA-N it was 57.7 µM; in the assay with LOX IMVI melanoma, 49.2 µM. In addition, the TGI in the assay on HOP-92 NSCLC was 91.1 µM; with SNB-75 CNS, greater than 70.7 µM; in the assay on RXF 393 renal, 35.1 µM; with MDA-MB-231 breast it was 43.4 µM; in the assay on SF-295 CNS, greater than 63.7 µM.
